Patent EP4813984A1 (Jiangsu Hengrui Pharmaceuticals Co., Ltd., priority 2023, dated 2025)

Assays:
[1] = target: T1, hGLP-1 receptor (Homo sapiens, UniProt P43220); experiment: Agonist activity against GLP-1 receptor (CRE-luciferase reporter, ONE-Glo Luciferase Assay System); type: cell-based; settings: CHO-K1/CRE-luc/hGLP-1 receptor cells; 5 h incubation with compound; chemiluminescence readout
T1 construct: expressed in transfected cells; host or cells: CHO-K1 (stably transfected with hGLP-1 receptor plasmid and CRE-luc plasmid)
Text: This experiment was intended to test the agonist activity of compound molecules against hGLP-1 receptor and evaluate the in vitro activity of the molecules according to EC50. In this experiment, ONE-Glo™ Luciferase Assay System (ONE-Glo™ Luciferase Assay System, Promega, E6110) was used. Under the action of the compound molecules, GLP-1R downstream signaling pathways were activated to cause elevated cAMP level. The binding of cAMP to CRE could initiate the transcriptional expression of a CRE downstream luciferase gene. The luciferase could emit fluorescence when reacting with a substrate thereof. The fluorescence signal, which reflected the activity of the compound for agonizing GLP-1 receptor, was measured by means ONE-Glo™ reagent.
A stably transfected CHO-K1/CRE-luc/hGLP-1 receptor cell strain (hGLP-1 receptor plasmid constructed in-house and CRE-luc plasmid Promega E8471) was constructed. CHO-K1/CRE-luc/hGLP-1 receptor cells were digested, centrifuged, and then resuspended. The single cell suspension was uniformly mixed and adjusted to a viable cell density of 2.78 × 10^5 cells/ml with a cell culture medium (DME/F-12 + 10% FBS). The resulting solution was added to a 96-well cell culture plate at 90 µL/well (Corning, #3903). The culture plate was incubated in an incubator for 16 h (37°C, 5% CO2).
The compound was dissolved in DMSO to prepare a stock solution with an initial concentration of 20 mM. The starting concentration of the small molecule compound was 0.02 mM. The compound was subjected to 3-fold dilution for 10 points, wherein the 11th point was DMSO. Another 96-well plate was taken, to which was added 95 µL/well of a cell culture medium (DME/F-12 + 10% FBS), followed by 5 µL/well of test samples with different concentrations. The mixtures were uniformly mixed. Next, 10 µL/well of test samples with different concentrations were added to the cell culture plate, with two duplicate wells for each sample. The culture plate was incubated in an incubator for 5 h (37°C, 5% CO2). The 96-well cell culture plate was taken out. 100 µL/well of ONE-Glo™ reagent was added, followed by incubation at room temperature for 10 minutes. Chemiluminescence was measured in and by a microplate reader (PHERAstar FS, BMG labtech).
Data were processed and analyzed using Microsoft Excel and Graphpad Prism 10. EC50 values of the compounds were obtained. Table 1. Agonist activity of the compounds of the present invention against hGLP-1 receptor

[2] = Pharmacokinetic evaluation in monkeys after intragastric gavage (plasma LC-MS/MS); type: in vivo; settings: both sexes, cynomolgus monkey, po, i.g., 1 mg/kg
Experimental: Using cynomolgus monkeys as test animals, the plasma concentrations of the example compounds at different time points were determined by an LC-MS/MS method following administration to the monkeys by intragastric gavage (i.g.). The pharmacokinetic behaviors of the compounds of the present invention in monkeys were investigated, and the pharmacokinetic profiles thereof were evaluated.
Compound 9: Three cynomolgus monkeys (two males and one female) were provided by Guangxi Nanning Tongling Shengwu Keji Youxian Gongsi, with production license SCXK Gui-2020-0002.
Compound 9: A certain amount of the test compound was separately weighed. 5% DMSO + 30% PG + 30% PEG400 + 35% normal saline were added to prepare a 0.4 mg/mL colorless and clear solution.
Compound 9: Administration dose was 1 mg/kg and administration volume was 2.5 mL/kg.
0.5 mL of blood samples were collected from the vein before administration and at 0.25, 0.5, 1.0, 2.0, 4.0, 6.0, 8.0, 11.0, and 24.0 hours after administration and placed in EDTA-K2 anticoagulant tubes, followed by centrifugation at 10000 rpm for 2 minutes (4°C). The plasma was separated within 1 hour and stored at -20°C or -80°C for analysis. The process from blood collection to centrifugation was operated under ice bath condition.
Determination of test compound contents in […] after administration of different compounds: Compound 9: 50 µL of the monkey plasma sample collected at each time point after administration was taken. 25 µL of an internal standard acetonitrile solution (tolbutamide, 1 ug/mL) was added, followed by 450 µL of an acetonitrile solution. The mixture was vortexed and mixed, followed by centrifugation at 3700 rpm for 10 min. The supernatant was taken for LC-MS/MS analysis.

T1 sequence (P43220 24-463): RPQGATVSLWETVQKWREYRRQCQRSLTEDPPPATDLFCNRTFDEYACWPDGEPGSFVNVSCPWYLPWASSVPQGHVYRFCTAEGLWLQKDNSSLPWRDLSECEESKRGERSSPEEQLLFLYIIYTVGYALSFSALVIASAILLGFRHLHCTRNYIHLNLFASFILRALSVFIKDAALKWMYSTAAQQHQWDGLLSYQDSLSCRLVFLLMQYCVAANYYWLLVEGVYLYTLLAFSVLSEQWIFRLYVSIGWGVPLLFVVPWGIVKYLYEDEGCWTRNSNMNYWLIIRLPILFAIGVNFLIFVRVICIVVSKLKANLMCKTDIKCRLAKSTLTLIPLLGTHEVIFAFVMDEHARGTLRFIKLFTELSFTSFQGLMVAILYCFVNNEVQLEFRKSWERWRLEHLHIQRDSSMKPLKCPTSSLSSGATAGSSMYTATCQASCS

| SMILES | EC50 [1] [pM] | Emax [1] [fold] | further results |
| --- | --- | --- | --- |
| Cc1cc(-n2nc3c(c2-c2cncn(-c4ccc5c(cnn5C)c4)c2=O)[C@H](C)N(C(=O)c2cc4cc([C@H]5CCOC(C)(C)C5)ccc4n2[C@@]2(c4noc(=O)[nH]4)C[C@@H]2C)CC3)cc(C)c1F [Compound 9, 3-((1S,2S)-1-(5-((S)-2,2-dimethyltetrahydro-2H-pyran-4-yl)-2-((S)-2-(4-fluoro-3,5-dimethylphenyl)-4-methyl-3-(1-(1-methyl-1H-indazol-5-yl)-6-oxo-1,6-dihydropyrimidin-5-yl)-4,5,6,7-tetrahydro-2H-pyrazolo[4,3-c]pyridine-5-carbonyl)-1H-indol-1-yl)-2-methylcyclopropyl)-1,2,4-oxadiazol-5(4H)-one] | 60 | 18.96 | Vd/F ([2]; read-out: Apparent volume of distribution Vz/F): 6.12 L/kg; AUC(0-t) ([2]; read-out: Area under the curve AUC0-t): 1180 ng·h/mL; bioavailability ([2]; read-out: Bioavailability F): 44.5%; CL/F ([2]; read-out: Clearance CL/F): 12.4 mL/min/kg; half-life ([2]; read-out: Half life T1/2 (converted)): 5.88 h; Cmax ([2]; read-out: Plasma concentration Cmax): 178 ng/mL |
| Cc1cc(-n2nc3c(c2-n2ccn(-c4ccc5c(cnn5C)c4F)c2=O)[C@H](C)N(C(=O)c2cc4cc5c(cc4n2[C@@]2(c4noc(=O)[nH]4)C[C@@H]2C)OCC2COCCC52)CC3)cc(C)c1F (stereo partly drawn) [Compound 4, 3-((1S,2S)-1-(9-((S)-3-(3-(4-fluoro-1-methyl-1H-indazol-5-yl)-2-oxo-2,3-dihydro-1H-imidazol-1-yl)-2-(4-fluoro-3,5-dimethylphenyl)-4-methyl-4,5,6,7-tetrahydro-2H-pyrazolo[4,3-c]pyridine-5-carbonyl)-1,4a,5,11b-tetrahydro-4H-pyrano[4',3':4,5]pyrano[3,2-f]indol-8(2H)-yl)-2-methylcyclopropyl)-1,2,4-oxadiazol-5(4H)-one] | 390 | 16.51 | – |
| Cc1cc(-n2nc3c(c2-c2cccn(-c4ccc5c(cnn5C)c4)c2=O)[C@H](C)N(C(=O)c2cc4cc([C@H]5CCOC(C)(C)C5)ccc4n2[C@@]2(c4noc(=O)[nH]4)C[C@@H]2C)CC3)cc(C)c1F [Compound 3, 3-((1S,2S)-1-(5-((S)-2,2-dimethyltetrahydro-2H-pyran-4-yl)-2-((S)-2-(4-fluoro-3,5-dimethylphenyl)-4-methyl-3-(1-(1-methyl-1H-indazol-5-yl)-2-oxo-1,2-dihydropyridin-3-yl)-4,5,6,7-tetrahydro-2H-pyrazolo[4,3-c]pyridine-5-carbonyl)-1H-indol-1-yl)-2-methylcyclopropyl)-1,2,4-oxadiazol-5(4H)-one] | 90 | 19.88 | – |
| C[C@H]1c2c(nn(-c3ccc(F)c(C4CC4)c3)c2-c2cncn(-c3ccc4c(cnn4C)c3)c2=O)CCN1C(=O)c1cc2cc([C@H]3CCOC(C)(C)C3)ccc2n1[C@@]1(c2noc(=O)[nH]2)C[C@@H]1C [Compound 42, 3-((1S,2S)-1-(2-((S)-2-(3-cyclopropyl-4-fluorophenyl)-4-methyl-3-(1-(1-methyl-1H-indazol-5-yl)-6-oxo-1,6-dihydropyrimidin-5-yl)-4,5,6,7-tetrahydro-2H-pyrazolo[4,3-c]pyridine-5-carbonyl)-5-((S)-2,2-dimethyltetrahydro-2H-pyran-4-yl)-1H-indol-1-yl)-2-methylcyclopropyl)-1,2,4-oxadiazol-5(4H)-one] | 50 | 19.67 | – |
| Cc1cc(-n2nc3c(c2N2C[C@@H]4COc5cc6c(cnn6C(C)C)c(F)c5N4C2=O)[C@H](C)N(C(=O)c2cc4cc([C@H]5CCOC(C)(C)C5)ccc4n2[C@@]2(c4noc(=O)[nH]4)C[C@@H]2C)CC3)cc(C)c1F [Compound 40, (R)-2-((S)-5-(5-((S)-2,2-dimethyltetrahydro-2H-pyran-4-yl)-1-((1S,2S)-2-methyl-1-(5-oxo-4,5-dihydro-1,2,4-oxadiazol-3-yl)cyclopropyl)-1H-indole-2-carbonyl)-2-(4-fluoro-3,5-dimethylphenyl)-4-methyl-4,5,6,7-tetrahydro-2H-pyrazolo[4,3-c]pyridin-3-yl)-10-fluoro-7-isopropyl-2,3,3a,4-tetrahydro-1H,7H-imidazo[1',5':4,5][1,4]oxazino[3,2-f]indazol-1-one] | 30 | 19.36 | – |
| Cc1cc(-n2nc3c(c2-c2cncn(-c4ccc5c(cnn5C5CC5)c4)c2=O)[C@H](C)N(C(=O)c2cc4cc([C@H]5CCOC(C)(C)C5)ccc4n2[C@@]2(c4noc(=O)[nH]4)C[C@@H]2C)CC3)cc(C)c1F [Compound 41, 3-((1S,2S)-1-(2-((S)-3-(1-(1-cyclopropyl-1H-indazol-5-yl)-6-oxo-1,6-dihydropyrimidin-5-yl)-2-(4-fluoro-3,5-dimethylphenyl)-4-methyl-4,5,6,7-tetrahydro-2H-pyrazolo[4,3-c]pyridine-5-carbonyl)-5-((S)-2,2-dimethyltetrahydro-2H-pyran-4-yl)-1H-indol-1-yl)-2-methylcyclopropyl)-1,2,4-oxadiazol-5(4H)-one] | 50 | 18.56 | – |
| Cc1cc(-n2nc3c(c2-n2ccn(-c4ccc5c(cnn5C)c4F)c2=O)[C@H](C)N(C(=O)c2cc4cc5c(cc4n2[C@@]2(c4noc(=O)[nH]4)C[C@@H]2C)OCC52CCOCC2)CC3)cc(C)c1F [Compound 7] | 30 | 14.46 | – |
| Cc1cc(-n2nc3c(c2N2C[C@@H]4COc5cc6c(cnn6C6CC6)c(F)c5N4C2=O)[C@H](C)N(C(=O)c2cc4cc([C@H]5CCOC(C)(C)C5)ccc4n2[C@@]2(c4noc(=O)[nH]4)C[C@@H]2C)CC3)cc(C)c1F [Compound 13, (R)-7-cyclopropyl-2-((S)-5-(5-((S)-2,2-dimethyltetrahydro-2H-pyran-4-yl)-1-((1S,2S)-2-methyl-1-(5-oxo-4,5-dihydro-1,2,4-oxadiazol-3-yl)cyclopropyl)-1H-indole-2-carbonyl)-2-(4-fluoro-3,5-dimethylphenyl)-4-methyl-4,5,6,7-tetrahydro-2H-pyrazolo[4,3-c]pyridin-3-yl)-10-fluoro-2,3,3a,4-tetrahydro-1H,7H-imidazo[1',5':4,5][1,4]oxazino[3,2-f]indazol-1-one] | 10 | 21.50 | – |
